The experiment addresses AMPK α1β1γ1 (Homo sapiens (Human), UniProt Q13131+Q9Y478). The experiment is described as follows: in vitro AMPK activation assay (ADP Glo Luminescence Kinase test). Type of experiment: biochemical. Particulars: for Emax: maximal achievable activation in the tested concentration range, percent of control max (positive control without test substance = 100%), read-out: AMPK α1β1γ1 PoCmax; for EC50: recombinant human AMPK alpha1/beta1/gamma1, ADP-Glo luminescence read-out. Here is the method:
Recombinant human AMPK (containing subunits alpha1, beta1 and gamma1) was obtained from a baculovirus expression system. The 3 subunits were expressed together, affinity-purified via a GST-tag fused to the alpha 1 subunit and deep-frozen in storage buffer (50 mM Tris-HCl pH 8, 300 mM NaCl, 1 mM TCEP and 10% glycerol) at −80° C. until use. The activity of the AMPK protein was determined using the ADP Glo® Luminescence Kinase test (Promega; V9103X). In this homogeneous test the amount of ADP formed by the kinase reaction is quantified by a luciferin-luciferase reaction using luminescence as read-out. The luminescence signal obtained correlates with the amount of ADP resulting from the kinase reaction and thus correlates with the activity of the protein kinase.
The test compounds were dissolved in 100% DMSO at a concentration of 10 mM and in a first step diluted in DMSO to a concentration of 5 mM, followed by serial dilution steps in 100% DMSO. Dilution factor and number of dilution steps may vary. Typically 8 different concentrations by 1:5 dilutions were prepared, further dilutions of the substances were carried out with test buffer (20 mM Hepes (pH 7.0), 15 mM MgCl2, 0.025% BSA, 0.01% Brij 35) until a concentration was reached which was 5 times above the final test concentration. 2 μl aliquots of these dilutions were transferred into a 384-well Optiplate (Perkin Elmer, #6007290). Typically the start concentration for serial dilutions in the assay is 10 μM. Typically AMPK was diluted to 25 μg/ml in the test buffer and 4 μl of this dilution were used in the kinase test (final concentration of AMPK is 10 μg/ml in a total volume of 10 μl for the kinase reaction). Kinase concentrations may vary depending on activity of the preparation batches. After 10 minutes incubation at room temperature 4 μl of a mix containing 2.5 μM substrate (H-His-Met-Arg-Ser-Ala-Met-Ser-Gly-Leu-His-Leu-Val-Lys-Arg-Arg-OH Trifluoroacetate salt/HMRSAMSGLHLVKRR from Bachem, Cat. No. H5938) and 75 μM ATP in test buffer were added to each well and the incubation was continued for 60 minutes at room temperature.
Positive controls are the reaction mixtures that contain no test substance; negative controls (blanks) are reaction mixtures that contain no AMPK enzyme.
After 60 minutes, 10 μl ADP-Glo® solution (ADP-Glo Reagent #V912B Promega) (heated to room temperature) were added to each well and incubation was continued for 40 minutes. Then 20 μl Kinase detection mix (Detection Buffer #V913B Promega; Kinase Detection Substrate #V914B Promega) were added and incubated for additional 40 minutes at room temperature.
All incubations were done in sealed plates in the dark.
The plates were read with an Envision Luminescence Reader (Perkin-Elmer).
Data Evaluation and Calculation:
The output file of the reader is a csv file that contains the well number and measured RLU. For data evaluation and calculation, the measurement of the negative control was set as 0% control and the measurement of the positive control was set as 100% control. Based on these values the % value for the measurement of each substance concentration was calculated using Assay Explorer software (Accelrys). Activating compounds achieve % of control values above 100%. The IC50 values were calculated from the % control values using Assay Explorer software. Calculation: [y=(a−d)/(1+(x/c)^b)+d], a=low value, d=high value; x=conc M; c=IC50 M; b=hill; y=% ctrl. The maximal achievable activation of a compound in the tested concentration range is reported as percent of control max (PoCmax).
In general terms: In ADP-Glo the light output rises with the ADP produced.

AMPK α1β1γ1, sequence (Q13131 whole entry, the tested form may be a part): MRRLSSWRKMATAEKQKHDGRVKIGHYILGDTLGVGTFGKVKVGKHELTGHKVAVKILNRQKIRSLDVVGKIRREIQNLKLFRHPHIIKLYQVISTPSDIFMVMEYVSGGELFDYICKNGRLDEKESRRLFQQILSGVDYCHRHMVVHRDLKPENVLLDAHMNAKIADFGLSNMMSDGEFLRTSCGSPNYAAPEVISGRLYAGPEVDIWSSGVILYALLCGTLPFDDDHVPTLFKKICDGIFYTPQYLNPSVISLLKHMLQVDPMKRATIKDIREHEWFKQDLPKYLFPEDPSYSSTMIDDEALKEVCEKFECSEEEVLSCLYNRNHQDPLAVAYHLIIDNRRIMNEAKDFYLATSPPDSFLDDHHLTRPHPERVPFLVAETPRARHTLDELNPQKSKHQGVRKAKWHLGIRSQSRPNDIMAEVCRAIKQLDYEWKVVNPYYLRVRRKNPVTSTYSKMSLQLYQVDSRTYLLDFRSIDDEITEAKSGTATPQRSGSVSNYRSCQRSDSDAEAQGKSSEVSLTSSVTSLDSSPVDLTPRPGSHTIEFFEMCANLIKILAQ
AMPK α1β1γ1, sequence (Q9Y478 whole entry, the tested form may be a part): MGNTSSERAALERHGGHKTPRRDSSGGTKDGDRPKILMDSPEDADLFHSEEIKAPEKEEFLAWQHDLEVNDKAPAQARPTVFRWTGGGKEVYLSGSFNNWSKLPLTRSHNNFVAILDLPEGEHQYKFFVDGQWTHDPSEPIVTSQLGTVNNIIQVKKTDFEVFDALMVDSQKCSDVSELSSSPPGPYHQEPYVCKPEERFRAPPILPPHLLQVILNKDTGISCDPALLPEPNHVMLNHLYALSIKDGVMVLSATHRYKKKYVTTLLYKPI
AMPK α1β1γ1, sequence (P54619 whole entry partner, the tested form may be a part): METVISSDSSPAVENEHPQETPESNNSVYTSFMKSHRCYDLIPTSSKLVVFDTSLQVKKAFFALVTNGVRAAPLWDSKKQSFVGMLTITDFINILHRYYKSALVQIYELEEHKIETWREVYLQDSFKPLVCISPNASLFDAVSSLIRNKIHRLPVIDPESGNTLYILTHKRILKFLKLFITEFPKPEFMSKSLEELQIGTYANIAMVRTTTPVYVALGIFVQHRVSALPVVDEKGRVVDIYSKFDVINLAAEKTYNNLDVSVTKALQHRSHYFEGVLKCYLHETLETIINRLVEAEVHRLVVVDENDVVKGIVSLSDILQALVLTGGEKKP

Take `CS(C)(=O)=Nc1ccc(-c2cc(F)c(-c3nc4nc(O[C@@H]5CO[C@H]6[C@@H]5OC[C@H]6O)[nH]c4cc3F)c(F)c2)cc1` [Example 16, ({4-[4-(2-{[(3R,3aR,6R,6aR)-6-Hydroxy-hexahydrofuro[3,2-b]furan-3-yl]oxy}-6-fluoro-1H-imidazo[4,5-b]pyridin-5-yl)-3,5-difluorophenyl]phenyl}imino)dimethyl-λ^6-sulfanone]: the Emax was 475% and the EC50 is 0.074 µM.
Taken in the same sequence, the figures for `CS(C)(=O)=Nc1ccc(-c2cc(F)c(-c3nc4nc(O[C@@H]5CO[C@H]6[C@@H]5OC[C@H]6O)[nH]c4cc3Cl)c(F)c2)cc1` [Example 17, ({4-[4-(2-{[(3R,3aR,6R,6aR)-6-Hydroxy-hexahydrofuro[3,2-b]furan-3-yl]oxy}-6-chloro-1H-imidazo[4,5-b]pyridin-5-yl)-3,5-difluorophenyl]phenyl}imino)dimethyl-λ^6-sulfanone] were 475% and 0.084 µM.

The EC50 is the concentration at which the effect is half-maximal.
